Converted amounts (≈) assume the structure as drawn.
Experiments:
Type in all cases: functional
[1] = system: Mycobacterium tuberculosis; test: Tested for antibacterial activity against Mycobacterium tuberculosis H37Rv isonicotinic acid hydrazide-resistant strain
[2] = system: Mycobacterium tuberculosis; test: Tested for antibacterial activity against Mycobacterium tuberculosis H37Rv kanamycin resistant strain
[3] = system: Mycobacterium tuberculosis; test: Tested for antibacterial activity against Mycobacterium tuberculosis H37Rv streptomycin resistant strain

| SMILES | MIC [1] [µg/mL] | MIC [2] [µg/mL] | MIC [3] [µg/mL] |
| --- | --- | --- | --- |
| CCCC(=O)OCCCNC(=O)c1ccccc1SSc1ccccc1C(=O)NCCCOC(=O)CCC | 3.13 (≈ 5.58 µM) | 6.25 (≈ 11.1 µM) | 6.25 (≈ 11.1 µM) |
| O=C(c1ccccc1SSc1ccccc1C(=O)n1nnc2ccccc21)n1nnc2ccccc21 | > 100 | > 100 | > 100 |
| CCOc1ccc2nc(NC(=O)c3ccccc3SSc3ccccc3C(=O)Nc3nc4ccc(OCC)cc4s3)sc2c1 | > 100 | > 100 | > 100 |
| O=C(Nc1cccc2ccc(O)cc12)c1ccccc1SSc1ccccc1C(=O)Nc1cccc2ccc(O)cc12 | 12.5 (≈ 21.2 µM) | 50 (≈ 84.9 µM) | 50 (≈ 84.9 µM) |
| CCC(CO)NC(=O)c1ccccc1SSc1ccccc1C(=O)NC(CC)CO (centres undefined) | 12.5 (≈ 27.9 µM) | 12.5 (≈ 27.9 µM) | 12.5 (≈ 27.9 µM) |
| CCCCCCCCCCCCCCCCCCCC(=O)OCCCNC(=O)c1ccccc1SSc1ccccc1C(=O)NCCCOC(=O)CCCCCCCCCCCCCCCCCCC | > 100 | > 100 | > 100 |
| CN1CCCN(C(=O)c2ccccc2SSc2ccccc2C(=O)N2CCCN(C)CC2)CC1 | > 100 | > 100 | > 100 |
| CCn1c2ccccc2c2cc(NC(=O)c3ccccc3SSc3ccccc3C(=O)Nc3ccc4c(c3)c3ccccc3n4CC)ccc21 | 1.56 (≈ 2.26 µM) | 3.13 (≈ 4.53 µM) | 1.56 (≈ 2.26 µM) |
| O=C(Nc1cccc2cccnc12)c1ccccc1SSc1ccccc1C(=O)Nc1cccc2cccnc12 | 12.5 (≈ 22.4 µM) | 50 (≈ 89.5 µM) | 50 (≈ 89.5 µM) |
| O=C(O)Cc1ccc(NC(=O)c2ccccc2SSc2ccccc2C(=O)Nc2ccc(CC(=O)O)cc2)cc1 | 100 (≈ 175 µM) | 100 (≈ 175 µM) | 100 (≈ 175 µM) |
| CC(O)CNC(=O)c1ccc(SSc2ccc(C(=O)NCC(C)O)cc2)cc1 (centres undefined) | > 100 | > 100 | > 100 |
| CC[C@@H](CO)NCCN[C@@H](CC)CO [ETHAMBUTOL] | 0.78 (≈ 3.82 µM) | 1.56 (≈ 7.64 µM) | 0.78 (≈ 3.82 µM) |
| O=C(Nc1ccc(S(=O)(=O)Nc2nc3ccccc3s2)cc1)c1ccccc1SSc1ccccc1C(=O)Nc1ccc(S(=O)(=O)Nc2nc3ccccc3s2)cc1 | 100 (≈ 113 µM) | 50 (≈ 56.7 µM) | 100 (≈ 113 µM) |
| O=C(NCc1ccco1)c1ccccc1SSc1ccccc1C(=O)NCc1ccco1 | 12.5 (≈ 26.9 µM) | 12.5 (≈ 26.9 µM) | 12.5 (≈ 26.9 µM) |
| O=C1c2ccccc2S(=O)(=O)N1CO | > 100 | > 100 | 100 (≈ 469 µM) |
| CCCCCCCCCCCC(=O)OCCCNC(=O)c1ccccc1SSc1ccccc1C(=O)NCCCOC(=O)CCCCCCCCCCC | 0.78 (≈ 0.993 µM) | 0.78 (≈ 0.993 µM) | 0.78 (≈ 0.993 µM) |
| NC(=O)c1ccccc1SSc1ccccc1C(N)=O | 6.25 (≈ 20.5 µM) | 6.25 (≈ 20.5 µM) | 6.25 (≈ 20.5 µM) |
| O=C(c1ccccc1SSc1ccccc1C(=O)N1C(=O)c2ccccc2C1=O)N1C(=O)c2ccccc2C1=O | > 100 | > 100 | > 100 |
| CCCCCCCC(=O)OCCCNC(=O)c1ccccc1SSc1ccccc1C(=O)NCCCOC(=O)CCCCCCC | 0.39 (≈ 0.58 µM) | 0.39 (≈ 0.58 µM) | 0.78 (≈ 1.16 µM) |
| CCCCc1ccc(NC(=O)c2ccccc2SSc2ccccc2C(=O)Nc2ccc(CCCC)cc2)cc1 | 0.78 (≈ 1.37 µM) | 1.56 (≈ 2.74 µM) | 1.56 (≈ 2.74 µM) |
| CCCCCCCCCC(=O)OCCCNC(=O)c1ccccc1SSc1ccccc1C(=O)NCCCOC(=O)CCCCCCCCC | 0.39 (≈ 0.535 µM) | 0.39 (≈ 0.535 µM) | 0.78 (≈ 1.07 µM) |
| CCNC(=O)OCCNC(=O)c1ccccc1SSc1ccccc1C(=O)NCCOC(=O)NCC | 25 (≈ 46.8 µM) | 25 (≈ 46.8 µM) | 25 (≈ 46.8 µM) |
| O=C(Nc1ccc(Br)c2ccccc12)c1ccccc1SSc1ccccc1C(=O)Nc1ccc(Br)c2ccccc12 | 12.5 (≈ 17.5 µM) | 12.5 (≈ 17.5 µM) | 12.5 (≈ 17.5 µM) |
| CC(=O)OCCCNC(=O)c1ccccc1SSc1ccccc1C(=O)NCCCOC(C)=O | 6.25 (≈ 12.4 µM) | 12.5 (≈ 24.8 µM) | 12.5 (≈ 24.8 µM) |

| SMILES | MIC [1] [µg/mL] | MIC [2] [µg/mL] | MIC [3] [µg/mL] |
| --- | --- | --- | --- |
| O=C(NCc1cccc2ccccc12)c1ccccc1SSc1ccccc1C(=O)NCc1cccc2ccccc12 | > 100 | > 100 | > 100 |
| O=C(Nc1cc2ccccc2cc1O)c1ccccc1SSc1ccccc1C(=O)Nc1cc2ccccc2cc1O | 12.5 (≈ 21.2 µM) | 6.25 (≈ 10.6 µM) | 12.5 (≈ 21.2 µM) |
| NNC(=O)c1ccncc1 [ISONIAZID] | 100 (≈ 729 µM) | 0.05 (≈ 0.365 µM) | 0.05 (≈ 0.365 µM) |
| O=C(Nc1c([N+](=O)[O-])ccc2ccccc12)c1ccccc1SSc1ccccc1C(=O)Nc1c([N+](=O)[O-])ccc2ccccc12 | 50 (≈ 77.3 µM) | 50 (≈ 77.3 µM) | 50 (≈ 77.3 µM) |
| O=c1c2ccccc2sn1CO | 6.25 (≈ 34.5 µM) | 12.5 (≈ 69 µM) | 12.5 (≈ 69 µM) |
| CCCCCC(=O)OCCCNC(=O)c1ccccc1SSc1ccccc1C(=O)NCCCOC(=O)CCCCC | 3.13 (≈ 5.07 µM) | 3.13 (≈ 5.07 µM) | 3.13 (≈ 5.07 µM) |
| CCOC(=O)CNC(=O)c1ccccc1SSc1ccccc1C(=O)NCC(=O)OCC | 12.5 (≈ 26.2 µM) | 25 (≈ 52.5 µM) | 12.5 (≈ 26.2 µM) |
| CO[C@H]1/C=C/O[C@@]2(C)Oc3c(C)c(O)c4c(O)c(c(/C=N/N5CCN(C)CC5)c(O)c4c3C2=O)NC(=O)/C(C)=C\C=C\[C@H](C)[C@H](O)[C@@H](C)[C@@H](O)[C@@H](C)[C@H](OC(C)=O)[C@@H]1C [RIFAMPIN] | 0.025 (≈ 0.0304 µM) | 0.05 (≈ 0.0608 µM) | 0.025 (≈ 0.0304 µM) |
| O=C(Nc1ccc(Cl)c2ccccc12)c1ccccc1SSc1ccccc1C(=O)Nc1ccc(Cl)c2ccccc12 | 12.5 (≈ 20 µM) | 12.5 (≈ 20 µM) | 12.5 (≈ 20 µM) |
| CC(O)Cn1sc2ccccc2c1=O (centres undefined) | 12.5 (≈ 59.7 µM) | 12.5 (≈ 59.7 µM) | 12.5 (≈ 59.7 µM) |
| CCOC(=O)c1ccc(NC(=O)c2ccccc2SSc2ccccc2C(=O)Nc2ccc(C(=O)OCC)cc2)cc1 | 3.13 (≈ 5.21 µM) | 6.25 (≈ 10.4 µM) | 3.13 (≈ 5.21 µM) |
| NC[C@H]1O[C@H](O[C@H]2[C@H](O)[C@@H](O[C@H]3O[C@H](CO)[C@@H](O)[C@H](N)[C@H]3O)[C@H](N)C[C@@H]2N)[C@H](O)[C@@H](O)[C@@H]1O [KANAMYCIN] | 6.25 (≈ 12.9 µM) | > 100 | 6.25 (≈ 12.9 µM) |
| O=C(Nc1cccc(C(F)(F)F)c1)c1ccccc1SSc1ccccc1C(=O)Nc1cccc(C(F)(F)F)c1 | 3.13 (≈ 5.28 µM) | 6.25 (≈ 10.5 µM) | 3.13 (≈ 5.28 µM) |
| O=C(NCC(O)c1ccc(O)c(O)c1)c1ccccc1SSc1ccccc1C(=O)NCC(O)c1ccc(O)c(O)c1 (centres undefined) | 100 (≈ 164 µM) | 100 (≈ 164 µM) | > 100 |
| CCCCCCCCCCCC(=O)OCCNC(=O)c1ccccc1SSc1ccccc1C(=O)NCCOC(=O)CCCCCCCCCCC | 3.13 (≈ 4.13 µM) | 3.13 (≈ 4.13 µM) | 3.13 (≈ 4.13 µM) |
| CCc1cc(CC)cc(NC(=O)c2ccccc2SSc2ccccc2C(=O)Nc2cc(CC)cc(CC)c2)c1 | > 100 | > 100 | > 100 |
| O=C(Nc1ccc2ccccc2c1)c1ccccc1SSc1ccccc1C(=O)Nc1ccc2ccccc2c1 | 1.56 (≈ 2.8 µM) | 1.56 (≈ 2.8 µM) | 1.56 (≈ 2.8 µM) |
| CCCCC(CC)CNC(=O)c1ccccc1SSc1ccccc1C(=O)NCC(CC)CCCC (centres undefined) | 1.56 (≈ 2.95 µM) | 1.56 (≈ 2.95 µM) | 1.56 (≈ 2.95 µM) |
| CN[C@@H]1[C@H](O[C@H]2[C@H](O[C@H]3[C@H](O)[C@@H](O)[C@H](N=C(N)N)[C@@H](O)[C@@H]3N=C(N)N)O[C@@H](C)[C@]2(O)C=O)O[C@@H](CO)[C@H](O[C@@H]2O[C@H](CO)[C@@H](O)[C@H](O)[C@@H]2O)[C@H]1O | 0.78 (≈ 1.05 µM) | 3.13 (≈ 4.21 µM) | > 100 |
| O=c1c2ccccc2sn1CCO | 12.5 (≈ 64 µM) | 12.5 (≈ 64 µM) | 12.5 (≈ 64 µM) |
| CCCCCCC(=O)OCCCNC(=O)c1ccccc1SSc1ccccc1C(=O)NCCCOC(=O)CCCCCC | 1.56 (≈ 2.42 µM) | 1.56 (≈ 2.42 µM) | 1.56 (≈ 2.42 µM) |
| CCC(O)CNC(=O)c1ccccc1SSc1ccccc1C(=O)NCC(O)CC (centres undefined) | 12.5 (≈ 27.9 µM) | 12.5 (≈ 27.9 µM) | 12.5 (≈ 27.9 µM) |
| CCCCCCCCCCNC(=O)c1ccccc1SSc1ccccc1C(=O)NCCCCCCCCCC | 3.13 (≈ 5.35 µM) | 6.25 (≈ 10.7 µM) | 3.13 (≈ 5.35 µM) |
| CC(C)(CO)NC(=O)c1ccccc1SSc1ccccc1C(=O)NC(C)(C)CO | 6.25 (≈ 13.9 µM) | 12.5 (≈ 27.9 µM) | 12.5 (≈ 27.9 µM) |

Source: ChEMBL document CHEMBL1122862, “Synthesis and antibacterial activity of 2,2'-dithiobis(benzamide) derivatives against Mycobacterium species” (1985)
